Drawing on patent publication US20120264735A1 (priority 2009, published 2012), this text covers IC50 for 33 compounds.

Usually IC50 stands for the concentration at which inhibition is half-maximal.

T1 sequence (P08581 25-1390): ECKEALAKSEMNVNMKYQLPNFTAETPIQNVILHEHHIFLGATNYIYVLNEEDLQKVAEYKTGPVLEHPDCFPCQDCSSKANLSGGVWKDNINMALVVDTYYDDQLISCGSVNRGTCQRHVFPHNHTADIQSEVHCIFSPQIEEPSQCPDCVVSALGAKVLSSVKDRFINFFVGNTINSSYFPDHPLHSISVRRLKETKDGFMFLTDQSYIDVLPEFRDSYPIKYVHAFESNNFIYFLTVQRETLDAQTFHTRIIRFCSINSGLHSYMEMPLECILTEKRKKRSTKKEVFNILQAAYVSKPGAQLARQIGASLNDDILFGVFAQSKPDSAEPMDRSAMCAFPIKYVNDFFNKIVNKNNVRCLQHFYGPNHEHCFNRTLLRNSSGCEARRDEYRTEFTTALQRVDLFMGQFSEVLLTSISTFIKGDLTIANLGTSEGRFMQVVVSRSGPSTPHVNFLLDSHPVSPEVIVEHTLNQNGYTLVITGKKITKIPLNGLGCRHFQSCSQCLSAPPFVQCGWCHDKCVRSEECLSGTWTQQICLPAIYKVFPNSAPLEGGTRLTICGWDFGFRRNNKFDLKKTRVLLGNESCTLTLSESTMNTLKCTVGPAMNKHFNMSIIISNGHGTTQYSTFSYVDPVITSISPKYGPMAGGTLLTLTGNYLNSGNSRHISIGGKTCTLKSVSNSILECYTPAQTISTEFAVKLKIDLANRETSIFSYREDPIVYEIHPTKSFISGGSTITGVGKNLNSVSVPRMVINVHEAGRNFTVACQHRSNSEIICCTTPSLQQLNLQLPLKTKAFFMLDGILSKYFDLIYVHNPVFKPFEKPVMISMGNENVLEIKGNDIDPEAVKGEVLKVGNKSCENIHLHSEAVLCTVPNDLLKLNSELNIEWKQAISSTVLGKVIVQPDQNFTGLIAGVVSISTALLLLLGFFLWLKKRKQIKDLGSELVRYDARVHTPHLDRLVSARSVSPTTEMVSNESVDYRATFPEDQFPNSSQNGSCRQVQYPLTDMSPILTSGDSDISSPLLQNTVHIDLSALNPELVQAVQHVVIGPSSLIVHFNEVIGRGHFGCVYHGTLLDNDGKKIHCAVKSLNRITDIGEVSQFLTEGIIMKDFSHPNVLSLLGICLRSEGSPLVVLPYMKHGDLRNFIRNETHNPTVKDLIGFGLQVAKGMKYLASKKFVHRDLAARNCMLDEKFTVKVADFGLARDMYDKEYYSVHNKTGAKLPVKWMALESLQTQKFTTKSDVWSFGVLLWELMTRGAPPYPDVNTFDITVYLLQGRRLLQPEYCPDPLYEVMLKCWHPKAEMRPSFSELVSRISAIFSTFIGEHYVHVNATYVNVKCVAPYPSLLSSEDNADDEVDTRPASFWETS

The assay addresses T1, c-Met kinase (recombinant c-Met) (Homo sapiens, UniProt P08581).
T1 construct: 0.27 nM recombinant c-Met
As to the kind of experiment: In vitro kinase assay I (homogeneous time-resolved fluorescence tyrosine kinase assay). It counts as biochemical. The gist of the method: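 Biotinylated peptide (0.5 μM) phosphorylated by 0.2 nM recombinant c-Met with 50 μM MgATP, 60 min at room temperature, pH 7.4, 5% DMSO. EDTA stop; HTRF read with Eu-anti-phosphotyrosine antibody and streptavidin-APC. IC50 from 4-parameter logistic fit.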
Turning to `Cn1cc(-n2ccc(=O)c(Cc3cccc(-c4ncc(N5CCC(C(N)=O)CC5)cn4)c3)n2)cn1` [Example 445, 1-[2-(3-{[1-(1-methyl-1H-pyrazol-4-yl)-4-oxo-1,4-dihydropyridazin-3-yl]methyl}phenyl)pyrimidin-5-yl]piperidine-4-carboxamide], the IC50 was under 100 nM. As for `CCCOC(=O)Nc1cccc(Cc2nn(-c3cncc(F)c3)ccc2=O)c1` [Example 35, propyl (3-{[1-(5-fluoropyridin-3-yl)-4-oxo-1,4-dihydropyridazin-3-yl]methyl}phenyl)carbamate], the IC50 is under 100 nM.

`CCOc1cnc(-c2cccc(Cc3nn(-c4ccc(C#N)cc4)ccc3=O)c2)nc1` [Example 137, 4-{3-[3-(5-ethoxypyrimidin-2-yl)benzyl]-4-oxopyridazin-1(4H)-yl}benzonitrile]: the IC50 is under 100 nM.

In the case of `COc1cnc(-c2cccc(Cc3nn(-c4cnn(CC(C)C)c4)ccc3=O)c2)nc1` [Example 95, 3-[3-(5-methoxypyrimidin-2-yl)benzyl]-1-[1-(2-methylpropyl)-1H-pyrazol-4-yl]pyridazin-4(1H)-one], the IC50 is under 100 nM.

Regarding `Cc1cnc(-c2cccc(Cc3nn(-c4cnn(C)c4)ccc3=O)c2)[nH]1` [Example 672, 3-[3-(5-Methyl-1H-imidazol-2-yl)benzyl]-1-(1-methyl-1H-pyrazol-4-yl)pyridazin-4(1H)-one], the IC50 lay within 1000 to 3000 nM. In the case of `CC(c1cccc(-c2ncc(-c3cnn(C)c3)cn2)c1)c1nn(-c2cnn(C)c2)ccc1=O` (single isomer, unassigned) [Example 232, 1-(1-methyl-1H-pyrazol-4-yl)-3-[(1S or R)-1-{3-[5-(1-methyl-1H-pyrazol-4-yl)pyrimidin-2-yl]phenyl}ethyl]pyridazin-4(1H)-one], the IC50 is under 100 nM. With `Cn1cc(-n2ccc(=O)c(Cc3cccc(-c4ncc(OCC5CCCO5)cn4)c3)n2)cn1` (racemic) [Example 260, rac-1-(1-methyl-1H-pyrazol-4-yl)-3-{3-[5-(tetrahydrofuran-2-ylmethoxy)pyrimidin-2-yl]benzyl}pyridazin-4(1H)-one], the IC50 is under 100 nM. For the compound `Cn1cc(-n2ccc(=O)c(Cc3cccc(-c4ncc(CCc5ccccn5)cn4)c3)n2)cn1` [Example 398, 1-(1-methyl-1H-pyrazol-4-yl)-3-(3-{5-[2-(pyridin-2-yl)ethyl]pyrimidin-2-yl}benzyl)pyridazin-4(1H)-one], the IC50 was under 100 nM. For `CC(C)COC(=O)Nc1cccc(Cc2nn(-c3ccc(-c4ccncc4)cc3)ccc2=O)c1` [Example 728, 2-methylpropyl (3-({4-oxo-1-(4-(pyridin-4-yl)phenyl)-1,4-dihydropyridazin-3-yl}methyl}phenyl) carbamate] the value was under 100 nM; for `CCOC(=O)Nc1cccc(Cc2nn(-c3ccc(F)c(F)c3)ccc2=O)c1` [Example 504, ethyl (3-{[1-(3,4-difluorophenyl)-4-oxo-1,4-dihydropyridazin-3-yl]methyl}phenyl)carbamate], under 100 nM. For the compound `CCCCOC(=O)Nc1cccc(Cc2nn(-c3cnn(C)c3)ccc2=O)c1` [Example 500, Butyl (3-{[1-(1-methyl-1H-pyrazol-4-yl)-4-oxo-1,4-dihydropyridazin-3-yl]methyl}phenyl)carbamate], the IC50 was under 100 nM. For `O=c1ccn(-c2ccc(F)c(F)c2)nc1Cc1cccc(-c2ncc(OC3CCOC3)cn2)c1` (single isomer, unassigned) [Example 350, 1-(3,4-difluorophenyl)-3-(3-{5-[(3S or R)-tetrahydrofuran-3-yloxy]pyrimidin-2-yl}benzyl)pyridazin-4(1H)-one] the value was under 100 nM. For the compound `Cn1cc(-n2ccc(=O)c(Cc3cccc(-c4ncc(OCc5ccccc5)cn4)c3)n2)cn1` [Example 67, 3-{3-[5-(benzyloxy)pyrimidin-2-yl]benzyl}-1-(1-methyl-1H-pyrazol-4-yl)pyridazin-4(1H)-one], the IC50 is under 100 nM. Regarding `CCn1cc(-n2ccc(=O)c(Cc3cccc(-c4ncc(COC)cn4)c3)n2)cn1` [Example 163, 1-(1-ethyl-1H-pyrazol-4-yl)-3-{3-[5-(methoxymethyl)pyrimidin-2-yl]benzyl}pyridazin-4(1H)-one], the IC50 was under 100 nM.

As to `CCCCc1cnc(-c2cccc(Cc3nn(-c4cnn(C)c4)ccc3=O)c2)nc1` [Example 392, 3-[3-(5-butylpyrimidin-2-yl)benzyl]-1-(1-methyl-1H-pyrazol-4-yl)pyridazin-4(1H)-one], the IC50 is under 100 nM.

For the compound `Cn1cc(-n2ccc(=O)c(Cc3ccc4nccn4c3)n2)cn1` [Example 46, 3-(imidazo[1,2-a]pyridin-6-ylmethyl)-1-(1-methyl-1H-pyrazol-4-yl)pyridazin-4(1H)-one], the IC50 lay within 1000 to 3000 nM. Regarding `CCn1cc(-n2ccc(=O)c(Cc3cccc(-c4ncc(OCc5ccccc5)cn4)c3)n2)cn1` [Example 71, 3-{3-[5-(benzyloxy)pyrimidin-2-yl]benzyl}-1-(1-ethyl-1H-pyrazol-4-yl)pyridazin-4(1H)-one], the IC50 was under 100 nM. For `O=C(Nc1cccc(Cc2nn(-c3ccc(F)c(F)c3)ccc2=O)c1)OCCN1CCOCC1` [Example 22, 2-morpholin-4-ylethyl (3-{[1-(3,4-difluorophenyl)-4-oxo-1,4-dihydropyridazin-3-yl]methyl}phenyl)carbamate] the value was under 100 nM; for `CCCOC(=O)Nc1cccc(Cc2nn(-c3cccnc3)ccc2=O)c1` [Example 28, propyl {3-[(4-oxo-1-pyridin-3-yl-1,4-dihydropyridazin-3-yl)methyl]phenyl}carbamate], under 100 nM; for `Cn1cc(-n2ccc(=O)c(Cc3cccc(NC(=O)OCC4CCO4)c3)n2)cn1` (racemic) [Example 578, rac-oxetan-2-ylmethyl (3-{[1-(1-methyl-1H-pyrazol-4-yl)-4-oxo-1,4-dihydropyridazin-3-yl]methyl}phenyl)carbamate], under 100 nM.

Take `Cn1cc(-n2ccc(=O)c(Cc3cccc(NC(=O)CCc4ccccc4)c3)n2)cn1` [Example 633, N-(3-{[1-(1-methyl-1H-pyrazol-4-yl)-4-oxo-1,4-dihydropyridazin-3-yl]methyl}phenyl)-3-phenylpropanamide]: the IC50 is under 100 nM.

Turning to `CCOc1cnc(-c2cccc(C(CC)c3nn(-c4cnn(C)c4)ccc3=O)c2)nc1` (single isomer, unassigned) [Example 205, 3-{(1S or R)-1-[3-(5-ethoxypyrimidin-2-yl)phenyl]propyl}-1-(1-methyl-1H-pyrazol-4-yl)pyridazin-4(1H)-one], the IC50 was in the range of 100 to 1000 nM.

On to `N#Cc1cccc(-n2ccc(=O)c(Cc3cccc(NC(=O)OCCC4CCOCC4)c3)n2)c1` [Example 598, 2-(tetrahydro-2H-pyran-4-yl)ethyl (3-{[1-(3-cyanophenyl)-4-oxo-1,4-dihydropyridazin-3-yl]methyl}phenyl)carbamate], for which the IC50 is under 100 nM. On to `O=C1CN(CCOC(=O)Nc2cccc(Cc3nn(-c4cc(F)cc(F)c4)ccc3=O)c2)CCN1` [Example 604, 2-(3-oxopiperazin-1-yl)ethyl (3-{[1-(3,5-difluorophenyl)-4-oxo-1,4-dihydropyridazin-3-yl]methyl}phenyl)carbamate], for which the IC50 was under 100 nM. For `O=c1ccn(-c2ccc(F)c(F)c2)nc1Cc1cccc(-c2ncc(OCC3CCOC3)cn2)c1` (racemic) [Example 328, rac-1-(3,4-difluorophenyl)-3-{3-[5-(tetrahydrofuran-3-ylmethoxy)pyrimidin-2-yl]benzyl}pyridazin-4(1H)-one], the IC50 is under 100 nM. `Cn1cc(-n2ccc(=O)c(Cc3cccc(CC(N)=O)c3)n2)cn1` [Example 48, 2-(3-{[1-(1-methyl-1H-pyrazol-4-yl)-4-oxo-1,4-dihydropyridazin-3-yl]methyl}phenyl)acetamide]: the IC50 was in the range of 1000 to 3000 nM.

For the compound `Cn1cc(-n2ccc(=O)c(Cc3cccc(-c4ncn(CC5CCOC5)n4)c3)n2)cn1` (racemic) [Example 79, rac-1-(1-methyl-1H-pyrazol-4-yl)-3-{3-[1-(tetrahydrofuran-3-ylmethyl)-1H-1,2,4-triazol-3-yl]benzyl}pyridazin-4(1H)-one], the IC50 was under 100 nM.

Turning to `Cn1cc(-n2ccc(=O)c(Cc3ccc4[nH]c(=O)[nH]c4c3)n2)cn1` [Example 23, 5-{[1-(1-methyl-1H-pyrazol-4-yl)-4-oxo-1,4-dihydropyridazin-3-yl]methyl}-1,3-dihydro-2H-benzimidazol-2-one], the IC50 fell in the range of 100 to 1000 nM.

On to `COCCc1nc(-c2cccc(Cc3nn(-c4cnn(C)c4)ccc3=O)c2)no1` [Example 744, 3-{3-[5-(2-methoxyethyl)-1,2,4-oxadiazol-3-yl]benzyl}-1-(1-methyl-1H-pyrazol-4-yl)pyridazin-4(1H)-one], for which the IC50 is 100 to 1000 nM. As for `O=c1ccn(-c2cc(F)cc(F)c2)nc1Cc1cccc(-c2ncc(O)cn2)c1` [compound 189, 1-(3,5-difluorophenyl)-3-[3-(5-hydroxypyrimidin-2-yl)benzyl]pyridazin-4(1H)-one], the figure is 100 to 1000 nM; as for `N#Cc1cccc(-n2ccc(=O)c(Cc3cccc(NC(=O)OCC4CCOC4)c3)n2)c1` (racemic) [Example 583, rac-tetrahydrofuran-3-ylmethyl (3-{[1-(3-cyanophenyl)-4-oxo-1,4-dihydropyridazin-3-yl]methyl}phenyl)carbamate], under 100 nM. On to `CC(C)COC(=O)Nc1cccc(Cc2nn(-c3cccc(-c4cnn(C)c4)c3)ccc2=O)c1` [Example 729, 2-methylpropyl [3-({1-[3-(1-methyl-1H-pyrazol-4-yl)phenyl]-4-oxo-1,4-dihydropyridazin-3-yl}methyl)phenyl] carbamate], for which the IC50 lay within 100 to 1000 nM.

For `CCn1cc(-n2ccc(=O)c(C(C)c3cccc(-c4ncc(OC5COC5)cn4)c3)n2)cn1` (single isomer, unassigned) [Example 213, 1-(1-ethyl-1H-pyrazol-4-yl)-3-((1S or R)-1-{3-[5-(oxetan-3-yloxy)pyrimidin-2-yl]phenyl}ethyl)pyridazin-4(1H)-one], the IC50 was in the range of 100 to 1000 nM.
